From ChEMBL document CHEMBL4028908, “The Discovery of 3-((4-Chloro-3-methoxyphenyl)amino)-1-((3R,4S)-4-cyanotetrahydro-2H-pyran-3-yl)-1H-pyrazole-4-carboxamide, a Highly Ligand Efficient and Efficacious Janus Kinase 1 Selective Inhibitor with Favorable Pharmacokinetic Properties” (J Med Chem, 2017)
≈ marks a conversion by molar mass, not a printed value.

Legend:
[1] = molecular target: Non-receptor tyrosine-protein kinase TYK2 (Homo sapiens, UniProt P29597)
[2] = molecular target: T1, Tyrosine-protein kinase JAK1 (Homo sapiens, UniProt P23458)
T1 sequence (P23458 whole entry): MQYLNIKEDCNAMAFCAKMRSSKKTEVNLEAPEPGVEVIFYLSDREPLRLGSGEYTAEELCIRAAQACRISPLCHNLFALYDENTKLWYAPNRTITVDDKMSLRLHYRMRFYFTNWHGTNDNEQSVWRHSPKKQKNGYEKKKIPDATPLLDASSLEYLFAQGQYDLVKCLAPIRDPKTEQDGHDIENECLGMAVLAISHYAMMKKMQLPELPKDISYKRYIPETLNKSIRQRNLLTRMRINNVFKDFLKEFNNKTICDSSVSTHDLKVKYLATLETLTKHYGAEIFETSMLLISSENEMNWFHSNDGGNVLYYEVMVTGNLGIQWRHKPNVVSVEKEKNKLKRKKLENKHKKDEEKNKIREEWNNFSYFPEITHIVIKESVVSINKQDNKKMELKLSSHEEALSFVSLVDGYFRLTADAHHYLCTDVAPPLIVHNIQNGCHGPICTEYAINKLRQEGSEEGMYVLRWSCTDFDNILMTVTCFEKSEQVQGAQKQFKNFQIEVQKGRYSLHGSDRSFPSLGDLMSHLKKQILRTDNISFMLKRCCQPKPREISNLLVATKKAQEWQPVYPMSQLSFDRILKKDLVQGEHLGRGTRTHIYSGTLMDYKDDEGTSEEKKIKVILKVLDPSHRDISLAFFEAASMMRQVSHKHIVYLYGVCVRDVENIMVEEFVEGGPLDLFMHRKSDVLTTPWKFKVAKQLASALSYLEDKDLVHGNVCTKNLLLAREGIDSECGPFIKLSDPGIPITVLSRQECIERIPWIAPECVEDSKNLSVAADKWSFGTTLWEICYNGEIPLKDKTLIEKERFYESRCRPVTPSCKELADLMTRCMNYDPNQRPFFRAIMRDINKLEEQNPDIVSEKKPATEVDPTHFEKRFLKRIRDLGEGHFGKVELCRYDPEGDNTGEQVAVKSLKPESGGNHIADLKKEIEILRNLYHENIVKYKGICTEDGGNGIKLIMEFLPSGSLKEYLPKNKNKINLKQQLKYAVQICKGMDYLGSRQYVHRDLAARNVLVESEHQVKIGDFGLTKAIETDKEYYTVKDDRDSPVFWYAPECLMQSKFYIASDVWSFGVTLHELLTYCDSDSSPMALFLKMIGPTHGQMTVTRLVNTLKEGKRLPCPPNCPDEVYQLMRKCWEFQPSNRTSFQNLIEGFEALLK

[3] = molecular target: T1, Tyrosine-protein kinase JAK1; remark: listed apart in the source
[4] = molecular target: T2, Tyrosine-protein kinase JAK2 (Homo sapiens, UniProt O60674)
T2 sequence (O60674 whole entry): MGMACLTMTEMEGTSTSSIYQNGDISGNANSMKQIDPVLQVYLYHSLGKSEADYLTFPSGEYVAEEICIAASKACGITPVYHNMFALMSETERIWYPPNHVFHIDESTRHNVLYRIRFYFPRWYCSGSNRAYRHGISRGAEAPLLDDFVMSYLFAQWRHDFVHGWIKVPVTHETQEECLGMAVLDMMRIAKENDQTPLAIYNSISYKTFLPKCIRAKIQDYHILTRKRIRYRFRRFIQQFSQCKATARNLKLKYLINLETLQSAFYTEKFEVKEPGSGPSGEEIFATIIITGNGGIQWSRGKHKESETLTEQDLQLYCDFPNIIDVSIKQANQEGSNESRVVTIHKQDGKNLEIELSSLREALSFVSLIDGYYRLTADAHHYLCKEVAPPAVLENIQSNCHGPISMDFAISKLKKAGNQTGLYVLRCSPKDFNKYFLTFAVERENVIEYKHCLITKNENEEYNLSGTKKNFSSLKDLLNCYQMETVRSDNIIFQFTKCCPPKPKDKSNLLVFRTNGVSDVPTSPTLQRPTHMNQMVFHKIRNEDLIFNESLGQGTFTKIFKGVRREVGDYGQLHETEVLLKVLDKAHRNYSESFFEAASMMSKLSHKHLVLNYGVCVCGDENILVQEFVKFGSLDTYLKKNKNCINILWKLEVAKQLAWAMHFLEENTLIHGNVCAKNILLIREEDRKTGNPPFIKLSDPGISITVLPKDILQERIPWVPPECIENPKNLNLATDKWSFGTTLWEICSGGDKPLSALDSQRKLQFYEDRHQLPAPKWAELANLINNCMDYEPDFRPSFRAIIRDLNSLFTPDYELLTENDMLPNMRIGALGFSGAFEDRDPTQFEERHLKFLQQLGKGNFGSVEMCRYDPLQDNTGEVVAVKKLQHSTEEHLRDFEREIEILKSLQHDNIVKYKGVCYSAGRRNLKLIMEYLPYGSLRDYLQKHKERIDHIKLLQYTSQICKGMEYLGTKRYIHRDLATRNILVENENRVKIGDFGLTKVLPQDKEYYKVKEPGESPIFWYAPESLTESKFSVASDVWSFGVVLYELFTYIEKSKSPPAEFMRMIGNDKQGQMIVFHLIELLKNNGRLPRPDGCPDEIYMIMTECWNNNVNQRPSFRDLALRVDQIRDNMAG

[5] = molecular target: T3, Tyrosine-protein kinase JAK3 (Homo sapiens, UniProt P52333)
T3 sequence (P52333 whole entry): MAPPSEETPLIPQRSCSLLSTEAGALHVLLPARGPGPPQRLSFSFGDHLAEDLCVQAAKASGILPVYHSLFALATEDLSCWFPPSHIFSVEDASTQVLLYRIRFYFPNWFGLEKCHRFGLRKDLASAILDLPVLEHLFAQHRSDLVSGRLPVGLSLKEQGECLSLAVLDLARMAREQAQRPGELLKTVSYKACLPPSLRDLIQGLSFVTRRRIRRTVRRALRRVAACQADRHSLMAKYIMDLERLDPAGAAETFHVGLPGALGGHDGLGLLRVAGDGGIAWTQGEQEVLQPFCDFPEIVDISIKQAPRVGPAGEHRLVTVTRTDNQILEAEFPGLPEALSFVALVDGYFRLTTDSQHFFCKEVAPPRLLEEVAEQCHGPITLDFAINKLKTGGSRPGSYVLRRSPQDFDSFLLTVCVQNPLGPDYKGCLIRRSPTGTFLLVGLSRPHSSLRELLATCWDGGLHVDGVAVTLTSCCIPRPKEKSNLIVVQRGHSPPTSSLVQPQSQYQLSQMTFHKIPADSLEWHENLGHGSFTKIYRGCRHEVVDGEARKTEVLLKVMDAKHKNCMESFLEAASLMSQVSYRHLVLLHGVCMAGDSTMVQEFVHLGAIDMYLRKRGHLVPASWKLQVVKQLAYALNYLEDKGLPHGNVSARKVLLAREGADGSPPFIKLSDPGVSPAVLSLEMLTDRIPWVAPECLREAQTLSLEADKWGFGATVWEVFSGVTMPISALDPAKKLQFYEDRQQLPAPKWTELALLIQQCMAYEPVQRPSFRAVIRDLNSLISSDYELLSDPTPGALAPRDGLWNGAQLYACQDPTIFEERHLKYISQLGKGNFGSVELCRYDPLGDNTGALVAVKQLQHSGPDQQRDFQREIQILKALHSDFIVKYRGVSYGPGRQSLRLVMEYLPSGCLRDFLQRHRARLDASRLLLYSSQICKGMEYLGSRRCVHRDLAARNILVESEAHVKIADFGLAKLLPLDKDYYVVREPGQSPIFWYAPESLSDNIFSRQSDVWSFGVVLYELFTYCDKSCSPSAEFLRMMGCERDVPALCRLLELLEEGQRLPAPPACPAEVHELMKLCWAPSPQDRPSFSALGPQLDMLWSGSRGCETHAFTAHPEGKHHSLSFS

[6] = Lipophilicity, log D of the compound at 100 uM at pH 7 by HPLC/DAD analysis; type: physicochemical; settings: buffer
Homo sapiens = species: Homo sapiens; assay: Selectivity ratio of IC50 for GST-tagged recombinant human JAK2 catalytic domain to IC50 for GST-tagged recombinant human JAK1 catalytic domain
[7] = molecular target: T2, Tyrosine-protein kinase JAK2; remark: listed apart in the source
[8] = Oral bioavailability in rat at 1 mg/kg; type: ADME, organism-based; settings: in vivo
[9] = Intrinsic clearance in rat hepatocytes after 120 mins by LC-MS/MS analysis; type: ADME, cell-based, Hepatocyte; settings: read-out: CLH
[10] = Intrinsic clearance in human hepatocytes after 120 mins by LC-MS/MS analysis; type: ADME, cell-based, Hepatocyte; settings: read-out: CLH
[11] = molecular target: Voltage-gated inwardly rectifying potassium channel KCNH2 (Homo sapiens, UniProt Q12809)
Chain of Voltage-gated inwardly rectifying potassium channel KCNH2 (Q12809 whole entry): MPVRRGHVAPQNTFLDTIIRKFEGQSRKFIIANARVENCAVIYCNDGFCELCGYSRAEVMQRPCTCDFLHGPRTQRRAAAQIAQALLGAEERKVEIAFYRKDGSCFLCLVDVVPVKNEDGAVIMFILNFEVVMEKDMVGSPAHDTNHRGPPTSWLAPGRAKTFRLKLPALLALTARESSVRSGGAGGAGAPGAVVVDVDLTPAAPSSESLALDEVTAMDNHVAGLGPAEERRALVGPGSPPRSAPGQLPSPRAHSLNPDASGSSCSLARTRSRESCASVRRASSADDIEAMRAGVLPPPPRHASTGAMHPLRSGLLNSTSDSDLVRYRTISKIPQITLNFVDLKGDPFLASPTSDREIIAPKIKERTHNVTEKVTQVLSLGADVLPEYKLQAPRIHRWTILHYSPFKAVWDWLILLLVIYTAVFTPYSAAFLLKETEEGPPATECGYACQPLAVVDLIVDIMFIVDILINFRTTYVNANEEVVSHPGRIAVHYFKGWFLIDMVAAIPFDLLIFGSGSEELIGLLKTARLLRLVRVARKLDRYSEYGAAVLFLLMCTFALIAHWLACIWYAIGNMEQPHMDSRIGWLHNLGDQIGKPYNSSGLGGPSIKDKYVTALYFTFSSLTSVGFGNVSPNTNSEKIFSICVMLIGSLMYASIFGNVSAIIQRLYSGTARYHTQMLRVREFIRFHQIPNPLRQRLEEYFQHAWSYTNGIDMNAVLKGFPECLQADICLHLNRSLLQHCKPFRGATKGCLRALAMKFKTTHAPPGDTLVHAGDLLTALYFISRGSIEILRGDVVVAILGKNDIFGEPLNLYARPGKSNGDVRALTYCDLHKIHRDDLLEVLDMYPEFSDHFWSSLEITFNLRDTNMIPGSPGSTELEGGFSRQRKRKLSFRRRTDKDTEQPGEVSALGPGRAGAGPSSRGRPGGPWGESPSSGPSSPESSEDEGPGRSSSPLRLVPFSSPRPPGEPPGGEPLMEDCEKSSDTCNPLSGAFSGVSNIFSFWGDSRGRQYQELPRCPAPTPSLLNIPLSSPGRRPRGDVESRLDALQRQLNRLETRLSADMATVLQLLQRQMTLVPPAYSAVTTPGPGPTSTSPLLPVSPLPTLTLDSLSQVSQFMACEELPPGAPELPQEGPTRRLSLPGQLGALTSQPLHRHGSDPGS

Rattus norvegicus = assay: Unbound clearance in rat at 0.5 mg/kg, iv or 1 mg/kg, po; type: ADME, organism-based; settings: in vivo
[12] = Plasma clearance in rat at 0.5 mg/kg, iv or 1 mg/kg, po; type: ADME, organism-based
[13] = Solubility of the compound in FaSSIF solution at 100 uM after overnight incubation by UPLC/DAD analysis; type: physicochemical

Chain of Non-receptor tyrosine-protein kinase TYK2 (P29597 whole entry): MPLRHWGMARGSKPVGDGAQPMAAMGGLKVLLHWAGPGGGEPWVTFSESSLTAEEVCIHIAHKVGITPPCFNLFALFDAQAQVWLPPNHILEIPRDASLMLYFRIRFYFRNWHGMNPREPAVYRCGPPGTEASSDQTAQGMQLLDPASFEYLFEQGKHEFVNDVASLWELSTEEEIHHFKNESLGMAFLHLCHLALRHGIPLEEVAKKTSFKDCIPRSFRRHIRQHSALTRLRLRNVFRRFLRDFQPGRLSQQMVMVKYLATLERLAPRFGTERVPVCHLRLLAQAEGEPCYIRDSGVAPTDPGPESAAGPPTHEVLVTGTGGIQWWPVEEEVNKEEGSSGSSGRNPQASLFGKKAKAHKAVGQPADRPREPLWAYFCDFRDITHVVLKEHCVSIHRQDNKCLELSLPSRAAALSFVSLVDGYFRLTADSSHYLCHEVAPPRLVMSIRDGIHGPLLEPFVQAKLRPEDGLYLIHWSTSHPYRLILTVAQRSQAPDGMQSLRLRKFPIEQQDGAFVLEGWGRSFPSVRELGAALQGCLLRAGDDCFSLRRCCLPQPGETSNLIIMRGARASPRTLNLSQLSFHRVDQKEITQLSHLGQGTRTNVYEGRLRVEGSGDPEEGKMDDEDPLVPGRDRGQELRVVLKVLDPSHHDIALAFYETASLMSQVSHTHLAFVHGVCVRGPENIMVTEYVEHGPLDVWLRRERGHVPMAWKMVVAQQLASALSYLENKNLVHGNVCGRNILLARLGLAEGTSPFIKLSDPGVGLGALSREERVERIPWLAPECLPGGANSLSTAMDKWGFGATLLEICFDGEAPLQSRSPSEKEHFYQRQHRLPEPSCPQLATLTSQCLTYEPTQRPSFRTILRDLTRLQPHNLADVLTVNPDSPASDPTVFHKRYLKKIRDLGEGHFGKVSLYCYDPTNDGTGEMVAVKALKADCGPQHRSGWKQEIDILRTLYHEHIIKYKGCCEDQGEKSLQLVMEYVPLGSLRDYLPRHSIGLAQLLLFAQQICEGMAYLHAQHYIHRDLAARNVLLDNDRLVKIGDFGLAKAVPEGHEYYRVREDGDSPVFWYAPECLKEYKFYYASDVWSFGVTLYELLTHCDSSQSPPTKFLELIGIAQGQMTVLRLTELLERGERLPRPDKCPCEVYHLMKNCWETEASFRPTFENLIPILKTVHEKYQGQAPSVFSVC

SMILES	IC50 [1] [nM]	IC50 [2] [nM]	IC50 [3] [nM]	IC50 [4] [nM]	IC50 [5] [nM]	logD at 100 µM [6]	Ratio IC50 (Homo sapiens)	IC50 [7] [nM]	bioavailability [8] [%]	CLint scaled [9] [mL/min/kg]	CLint scaled [10] [mL/min/kg]	IC50 [11] [nM]	CL free (Rattus norvegicus) [mL/min/kg]	clearance [12] [mL/min/kg]	solubility at 100 µM [13] [µM]
N#Cc1ccc(Nc2nn([C@H]3COCC[C@@H]3C#N)cc2C(N)=O)cc1C1CC1	40	1.4	72	16	> 1500	2.34	11	744							
N#C[C@H]1CCOC[C@@H]1n1cc(C(N)=O)c(Nc2cc(F)c3nccc(Cl)c3c2)n1	12	0.24	14	7	1010	1.81	29	608	19	52	25				
N#C[C@H]1CCCC[C@@H]1n1cc(C(N)=O)c(Nc2ccccc2)n1						2.66				160	25	> 60000	12100	484	
N#C[C@H]1CCOC[C@@H]1n1cc(C(N)=O)c(Nc2ccnc(F)c2)n1	3				511	1.18			19	5	1.5	> 60000			159 (≈ 52.5 µg/mL)
N#Cc1ccc(Nc2nn([C@H]3COCC[C@@H]3C#N)cc2C(N)=O)cc1Cl	4	0.4	26	2.7	556	2.18	7	261	23						
N#C[C@H]1CCOC[C@@H]1n1cc(C(N)=O)c(Nc2ccc(-n3ccnn3)cc2)n1	0.5	0.06	23	0.7	116	1		254	3	4.8	2.5				96 (≈ 36.3 µg/mL)
N#C[C@H]1CCOC[C@@H]1n1cc(C(N)=O)c(Nc2ccc(C3CC3)cc2)n1	3.9	0.5	37	1.9	280	2.58	4	200		262	41	35000			
C[C@@H]1NS(=O)(=O)c2ccc(Nc3nn([C@H]4COCC[C@@H]4C#N)cc3C(N)=O)cc21	1.7	0.04	16	2	315	3.15	50	224		62	62				
N#C[C@H]1CCOC[C@@H]1n1cc(C(N)=O)c(Nc2ccc([C@H](O)C(F)(F)F)cc2)n1	0.4				100	1.93			9	< 40	< 20	> 60000			
Cc1ncnc2ccc(Nc3nn([C@H]4COCC[C@@H]4C#N)cc3C(N)=O)cc12	14	0.16	24	7	783	1.02	43	1630							
N#C[C@H]1C[C@@H](O)CC[C@@H]1n1cc(C(N)=O)c(Nc2ccc(Cl)cc2)n1									10			26000			
N#Cc1ccc(Nc2nn([C@H]3COCC[C@@H]3C#N)cc2C(N)=O)cc1C#N	11	0.9	77	5	656	1.99	6	1190							
COc1cc(Nc2nn([C@H]3COCC[C@@H]3C#N)cc2C(N)=O)ccc1C#N	9		19	3.2	391	1.87	46	430	2	< 40	24				
COc1cc(Nc2nn([C@H]3COCC[C@@H]3C#N)cc2C(N)=O)cc(F)n1 [ATINVICITINIB]	13	0.4	39			1.89			49	14	2				
N#C[C@H]1CCOC[C@@H]1n1cc(C(N)=O)c(Nc2ccc(Cl)cc2)n1	2				256	2.57			71	9	85	40000			39 (≈ 13.5 µg/mL)
Cn1cc(-c2ccc(Nc3nn([C@H]4COCC[C@@H]4C#N)cc3C(N)=O)cc2)cn1	0.2	0.02	6	0.5	91	1.48	23	39	18	55	< 20	> 60000			42 (≈ 16.4 µg/mL)
N#C[C@H]1CCOC[C@@H]1n1cc(C(N)=O)c(Nc2ccccc2)n1	2.9	0.4	33		361	2.08			79	70	6	> 60000	110	20	18 (≈ 5.6 µg/mL)
N#C[C@H]1CCOC[C@@H]1n1cc(C(N)=O)c(Nc2ccc(F)cc2)n1	1.8	0.3	31	2	304	2.18	7	334	40	< 40	< 20	40000			42 (≈ 13.8 µg/mL)
COc1ccnc2c(F)cc(Nc3nn([C@H]4COCC[C@@H]4C#N)cc3C(N)=O)cc12	8	0.19	24	10	> 1500	1.4	53	2110		15	15				
CN(C)c1cc(Nc2nn([C@H]3COCC[C@@H]3C#N)cc2C(N)=O)cc(F)n1	13	0.18	28	3.4	701	2.07	19	530	4	9	4				
CN([C@H]1CC[C@H](n2cc(C(N)=O)c(Nc3ccc(Cl)cc3)n2)[C@@H](C#N)C1)C1(C)COC1										80	32	46000			
N#C[C@H]1CCOC[C@@H]1n1cc(C(N)=O)c(Nc2ccc(OC(F)F)cc2)n1	0.7	0.1	5	0.8	196	2.27	11	54	42	59	28	25000			
